# Experimental data from US4883791A, “25S,26-dihydroxycholecalciferol in the treatment of hypercalcitriolemic disease states” (Board of Regents, The University of Texas System, priority 1987, dated 1989).
# Entries after “also recorded” stand apart in the source; their conditions may differ.
# Assays:
# [1] = Serum 25S,26(OH)2 D level after administration (rat serum vitamin D binding protein assay); format: in vivo, Sprague-Dawley rats (adult female); details: mean ± SE
# Source text: (§1) Adult female Sprague-Dawley rats weighing between 190-200 g were used in all studies and were purchased from Harlan (Houston, TX). The animals were housed in the animal resource facility and were fed a standard vitamin D-replete rat chow diet (2.0% calcium and 0.9% phorphorus, Tekland, Winfield, OH) ad lib. After four to five days of equlibration the animals were divided into appropriate study groups and injected subcutaneously each day with various doses of 25(S),26(OH)2 D3 or 1,25(OH)2 D3 metabolites. In some experiments, animals received both metabolites as two separate injections. Control animals received only vehicle (propylene glycol).
# Two ml of serum was obtained for each rat for measurement of 25(S),26(OH)2 D3, and 1,25-(OH)2 D3. […] This chromatographic system effectively separates 250HD (5-11 ml) from the dihydroxy metabolites (14-30 ml). The trihydroxy metabolite 1,25,26(OH)3 D is eluted from the column by changing the solvent system to 8:2:2:0.015 (hexane:chloroform:methanol:H2 O) after elution of the dihydroxy metabolites and collecting the next 12 ml.
# 250HD was purified on a 5% 2-propanol in hexane solvent system. The three dihydroxyvitamin D metabolites were isolated and purified using an 11% 2-propanol in hexane solvent system. […] The assay of 1,25(OH)2 D was accomplished using the chick intestinal receptor protein.
# (§2) Values in parenthesis represent p value of significant difference between
# (§3) dosed and control animals as determined by nonparametric analysis and
# (§4) Welch's approximation to the t test. All values expressed as mean ± SE
# (§5) for seven rats per group.
# (§6) ^a 1,25(OH)2 D3 administered subcutaneously at a dose of
# (§7) 0.15 μg/d/rat for three days
# (§8) ^b 25S,26(OH)2 D3 administered subcutaneously for seven day
# (§9) at a dose of 20 μg/d/rat; on days 5, 6, and 7 both 25S,26(OH)2
# (§10) D3 and 1,25(OH)2 D3 (0.15 μg/d/rat) were given as two
# [2] = Effect of 25S,26(OH)2 D3 administration on 1,25(OH)2 D3 mediated increases in serum 1,25(OH)2 D3; format: in vivo, Sprague-Dawley rats (adult female); details: for serum 1,25(OH)2 D: mean ± SE
# Source text: as §1
# Two ml of serum was obtained for each rat for measurement of 25(S),26(OH)2 D3, and 1,25-(OH)2 D3. After spiking the samples with approximately 1200 cpm of radiolabeled 250HD3, 24,25-(OH)2 D3 and 1,25(OH)2 D3 and allowing the samples to equilibrate for 30 minutes, isolation of the vitamin D metabolites was accomplished as described in Bishop JE, Norman AW, Coburn JW, Roberts PA, Henry, HL 1980 "Determination of the concentration of 25-hydroxyvitamin D, 24,25-dihydroxyvitamin D and 1,25-dihydroxyvitamin D in a single two-milliliter plasma sample." Min Elect Metab 3: 181. Further separation and partial purification of the metabolites was effected with lipohilic Sephadex (Sigma, St. Louis, MO) liquid gel chromatography using a 9:1:1:0.015 (hexane:chloroform:methanol:H2 O) solvent system and a 10×1 cm gel bed as previously described by Eisman JA, Hamstra AJ, Kream BD, DeLuca HF, 1975, "A sensitive, precise and convenient method for determination of 1,25-dihydroxyvitamin D in human plasma." Arch Biochem Biophys 176: 235. This chromatographic system effectively separates 250HD (5-11 ml) from the dihydroxy metabolites (14-30 ml). The trihydroxy metabolite 1,25,26(OH)3 D is eluted from the column by changing the solvent system to 8:2:2:0.015 (hexane:chloroform:methanol:H2 O) after elution of the dihydroxy metabolites and collecting the next 12 ml.
# Final resolution and purification of the vitamin D metabolites was performed with high pressure liquid chromatography as previously described in Zerwekh et al., 1983, "Extra-renal production of 24,25-dihydroxyvitaminD in chronic renal failure during 25-hydroxyvitamin D3 therapy." Kid Int. 23: 401 and Pak et al., 1982, "Effects of short-term glucocorticoid administration in primary hyperparathyroidism: comparison to sarcoidiosis J. Clin. Endrocrinol Metab. 54: 824. 250HD was purified on a 5% 2-propanol in hexane solvent system. The three dihydroxyvitamin D metabolites were isolated and purified using an 11% 2-propanol in hexane solvent system. The assay of 25S,26-(OH)2 D was performed using the rat serum vitamin D binding protein assay system described in Haddad JG, Chyu KF 1971 "competitive protein binding assay for 25-hydroxycholecalciferol." J Clin Endocrinol Metab 33: 992. The assay of 1,25(OH)2 D was accomplished using the chick intestinal receptor protein.
# as §2, §3, §4, §5, §6, §7, §8, §9, §10
compound,measurement,setting,value
"C=C1/C(=C\C=C2/CCC[C@]3(C)[C@@H]([C@H](C)CCCC(C)(C)O)CC[C@@H]23)C[C@@H](O)C[C@@H]1O [1,25(OH)2 D3, 1α,25-dihydroxycholecalciferol, reference compound]","serum 25S,26(OH)2 D","[1]; Exp. 1, 1,25(OH)2 D3 alone, 0.15 μg/d/rat s.c., three days, seven rats, control 1.9 ± 0.2",3.0 ± 0.8 ng/mL
same,"serum 25S,26(OH)2 D","[1]; Exp. 2, 1,25(OH)2 D3 alone s.c., seven rats, control 2.0 ± 0.2",3.20 ± 0.3 ng/mL
same,"serum 25S,26(OH)2 D","[1]; Exp. 3, 1,25(OH)2 D3 alone s.c., seven rats, control 1.20 ± 0.1",0.9 ± 0.3 ng/mL
same,"serum 1,25(OH)2 D","[2]; Exp. 1, 1,25(OH)2 D3 alone, 0.15 μg/d/rat s.c., three days, seven rats, control 25 ± 3, p < 0.001",206 ± 17 pg/mL
same,"serum 1,25(OH)2 D","[2]; Exp. 2, 1,25(OH)2 D3 alone s.c., seven rats, control 23 ± 3, p = 0.006",175 ± 52 pg/mL
same,"serum 1,25(OH)2 D","[2]; Exp. 3, 1,25(OH)2 D3 alone s.c., seven rats, control 27 ± 4, p < 0.001",180 ± 45 pg/mL
"C=C1CC[C@H](O)C/C1=C/C=C1\CCC[C@]2(C)[C@@H]([C@H](C)CCC[C@](C)(O)CO)CC[C@@H]12 [25S,26(OH)2 D3, 25S,26-dihydroxycholecalciferol]","serum 25S,26(OH)2 D","[1]; Exp. 1, 25S,26(OH)2 D3 20 μg/d/rat s.c. seven days + 1,25(OH)2 D3 0.15 μg/d/rat days 5, 6, 7, control 1.9 ± 0.2, p < 0.001",295 ± 7 ng/mL
same,"serum 25S,26(OH)2 D","[1]; Exp. 2, 25S,26(OH)2 D3 + 1,25(OH)2 D3 s.c., seven rats, control 2.0 ± 0.2, p < 0.01",168 ± 14 ng/mL
same,"serum 25S,26(OH)2 D","[1]; Exp. 3, 25S,26(OH)2 D3 + 1,25(OH)2 D3 s.c., seven rats, control 1.20 ± 0.1, p < 0.006",236 ± 28 ng/mL
same,"serum 1,25(OH)2 D","[2]; Exp. 1, 25S,26(OH)2 D3 20 μg/d/rat s.c. seven days + 1,25(OH)2 D3 0.15 μg/d/rat days 5, 6, 7, control 25 ± 3",59 ± 3 pg/mL
same,"serum 1,25(OH)2 D","[2]; Exp. 2, 25S,26(OH)2 D3 + 1,25(OH)2 D3 s.c., seven rats, control 23 ± 3",46 ± 4 pg/mL
same,"serum 1,25(OH)2 D","[2]; Exp. 3, 25S,26(OH)2 D3 + 1,25(OH)2 D3 s.c., seven rats, control 27 ± 4",38 ± 6 pg/mL
same,"reduction of serum / endogenous 1,25-dihydroxycholecalciferol",[2]; result in words,"lowers endogenous levels of 1α,25-dihydroxycholecalciferol; also recorded: active in reducing serum concentrations of 1,25-dihydroxycholecalciferol"
